Tested on: vaginal proteome (human proteins in vaginal fluid)
Test: MS/MS proteomic analysis of vaginal fluid pools, BV-affected women before (BV) and after rifaximin/placebo treatment: human proteins
Assay type: in vivo
Procedure: Proteomic analysis was performed on 9 pools of vaginal isolates, grouped according to the status of the BV infection: • H pool (from 41 healthy women); BV pool (from 39 BV-affected women); • A-R pool (from 2 women who were in remission after rifaximin treatment-group A); • A-N pool (from 8 women who were not in remission after rifaximin treatment-group A); • B-R pool (from 5 women who were in remission after rifaximin treatment-group B); • B-N pool (from 5 women who were not in remission after rifaximin treatment-group B); • C-R pool (from 4 women who were in remission after rifaximin treatment-group C); • C-N (from 5 women who were not in remission after rifaximin treatment-group C); • D-N (from 10 women who were not in remission after placebo treatment-group D). Scheme of the vaginal fluids collected for testing the diagnostic method is represented in FIG. 1.
In these figures are reported the peptides in the fractionated pools of healthy women, women affected by BV and peptides of women treated with rifaximin. The treatment with rifaximin was at dosage of 100 mg/day for 5 days; (remission, A-R; no remission, A-N), 25 mg/5 days (remission, B-R; no remission, B-N), 100 mg/2 days (remission, C-R; no remission, C-N), and placebo for 5 days (D-N). Two types of comparisons were carried out: (i) between fractionated pools of proteins from vaginal fluid of healthy women (HF) versus fractionated pool of proteins from vaginal fluid of women affected by bacterial vaginosis (BVF); (ii) between whole pools of proteins from vaginal fluid of women affected by BV treated by administering different doses of rifaximin or placebo before (BV) and after (A-R, A-N, B-R, B-N, C-R, C-N, D-N) treatment. Fractioned pools of proteins are obtained, e.g., by separating the proteins by separation on membrane filtration with different membrane porosity, prior to MS/MS analysis.
Nine volumes of acetone: HCl (10:1) were added to the supernatant of the vaginal rinsing and proteins were precipitated by centrifuging at 12000 g for 10 min. The protein pellet was dissolved in 1 mL of 70% ethanol and the sample was spun at 12000 g for 10 min. One mL of acetone was added and the proteins were further precipitated by centrifugation at 12000 g for 5 min. After removing supernatant, pellet was dried by SpeedVac concentrator (Thermo Savant ISS110, Thermo Fisher Scientific, Waltham, Mass.) and then stored at −20° C.
Protein extract was quantified using the 2-D Quant Kit (GE Healthcare, Uppsala, Sweden) according to the manufacturer's instructions.
Patients who were diagnosed for BV at the study visit V1 were included in a multicentre, double-blind, randomised, placebo-controlled study (EudraCT: 2009-011826-32), that was performed to compare the efficacy of different doses of rifaximin vaginal tablets versus placebo for the treatment of BV. The patients underwent a randomisation visit and were distributed into 4 treatment groups: group A received 100 mg rifaximin vaginal tablet once daily for 5 days (n=10), group B received 25 mg rifaximin vaginal tablet once daily for 5 days (n=10), group C received 100 mg rifaximin vaginal tablet once daily for the first 2 days and placebo vaginal tablet for the remaining 3 days (n=9), group D received placebo vaginal tablet once daily for 5 days (n=10). Study medication was administered intra-vaginally at bedtime. After 7 to 10 days from the end of the therapy a follow-up visit (V3) was performed. Remission was evaluated at V3 according to Amsel's criteria (<3) and Gram stain Nugent score (≦3) (Table 1).
Standardized vaginal rinsings with 2 mL of saline were collected for analysis at V1 and V3 by flushing and re-aspirating the fluid through a 22 Gauge needle in the left, central and right upper vaginal vaults. The vaginal rinsings were subsequently stored at −80° C. until use.
MS/MS analysis was carried out for H and BV pools and for the whole BV, A-R, A-N, B-R, B-N, C-R, C-N and D-N pools containing 50 μg of protein each. […]

CO[C@H]1/C=C/O[C@@]2(C)Oc3c(C)c(O)c4c(O)c(c5c(nc6cc(C)ccn65)c4c3C2=O)NC(=O)/C(C)=C\C=C\[C@H](C)[C@H](O)[C@@H](C)[C@@H](O)[C@@H](C)[C@H](OC(C)=O)[C@@H]1C [rifaximin]
Ratio: BV/R, Vitamin D-binding protein (C-R pool (100 mg × 2 days, in remission) vs BV pool before treatment, vaginal fluid): 0.0 | Ratio X/H Sciellin (O95171) (pool A-N after treatment): 0.0 | Ratio X/H Semenogelin-2 (Q02383) (pool A-N after treatment): 525.8 | Ratio X/H Serine protease 27 (Q9BQR3) (pool A-N after treatment): 0.0 | Ratio X/H Serine/threonine-protein kinase ULK1 (O75385) (pool A-N after treatment): −5.1 | Ratio X/H Serotransferrin (P02787) (pool A-N after treatment): 1.6 | Ratio X/H Serpin B3 (P29508) (pool A-N after treatment): 0.0 | Ratio X/H Serpin B4 (P48594) (pool A-N after treatment): 0.0 | Ratio X/H Serpin B5 (P36952) (pool A-N after treatment): −3.3 | Ratio X/H Serpin B6 (P35237) (pool A-N after treatment): −2.1 | Ratio X/H Serpin B9 (P50453) (pool A-N after treatment): −2.6 | Ratio X/H Serpin B12 (Q96P63) (pool A-N after treatment): −1.5 | Ratio X/H Serpin B13 (Q9UIV8) (pool A-N after treatment): 0.0 | Ratio X/H Serum albumin (P02768) (pool A-N after treatment): −1.5 | Ratio X/H Serum paraoxonase/arylesterase 1 (P27169) (pool A-N after treatment): 1.5 | Ratio X/H Small proline-rich protein 3 (Q9UBC9) (pool A-N after treatment): 3.4 | Ratio X/H Stanniocalcin-1 (P52823) (pool A-N after treatment): 1.9 | Ratio X/H Sulfhydryl oxidase 1 (O00391) (pool A-N after treatment): −1.6 | Ratio X/H Superoxide dismutase [Cu—Zn] (P00441) (pool A-N after treatment): 0.0 | Ratio X/H Suprabasin (Q6UWP8) (pool A-N after treatment): 13.5 | Ratio X/H Syntenin-1 (O00560) (pool A-N after treatment): 4.4 | Ratio X/H Talin-1 (Q9Y490) (pool A-N after treatment): 0.0 | Ratio X/H Tctex1 domain-containing protein 2 (Q8WW35) (pool A-N after treatment): −1.6 | Ratio X/H Teneurin-3 (Q9P273) (pool A-N after treatment): 9.7 | Ratio X/H Thioredoxin (P10599) (pool A-N after treatment): 0.0 | Ratio X/H Transaldolase (P37837) (pool A-N after treatment): −1.8 | Ratio X/H Transmembrane protease serine 11D (O60235) (pool A-N after treatment): −1.8 | Ratio X/H Transthyretin (P02766) (pool A-N after treatment): 0.0 | Ratio X/H Tumor protein D54 (O43399) (pool A-N after treatment): 0.0 | Ratio X/H UTP--glucose-1-phosphate uridylyltransferase (Q16851) (pool A-N after treatment): 0.0 | Ratio X/H UV excision repair protein RAD23 homolog B (P54727) (pool A-N after treatment): −2.9 | Ratio X/H Uronyl 2-sulfotransferase (Q9Y2C2) (pool A-N after treatment): −786.0 | Ratio X/H Versican core protein (P13611) (pool A-N after treatment): 0.0 | Ratio X/H Vinculin (P18206) (pool A-N after treatment): 0.0 | Ratio X/H Vitamin D-binding protein (P02774) (pool A-N after treatment): 0.0 | Ratio X/H Werner syndrome ATP-dependent helicase (Q14191) (pool A-N after treatment): 302.6 | Ratio X/H Zinc finger protein 185 (O15231) (pool A-N after treatment): 2.2 | Ratio X/H Zinc finger protein 335 (Q9H4Z2) (pool A-N after treatment): 0.0 | Ratio X/H Zinc-alpha-2-glycoprotein (P25311) (pool A-N after treatment): 0.0 | Ratio X/H Zyxin (Q15942) (pool A-N after treatment): −1.7 | Ratio X/H Sciellin (O95171) (pool A-R after treatment): 0.0 | Ratio X/H Semenogelin-2 (Q02383) (pool A-R after treatment): 1.9 | Ratio X/H Serine protease 27 (Q9BQR3) (pool A-R after treatment): −1.7 | Ratio X/H Serine/threonine-protein kinase ULK1 (O75385) (pool A-R after treatment): −2.2 | Ratio X/H Serotransferrin (P02787) (pool A-R after treatment): −1.5 | Ratio X/H Serpin B3 (P29508) (pool A-R after treatment): 3.2 | Ratio X/H Serpin B4 (P48594) (pool A-R after treatment): 0.0 | Ratio X/H Serpin B5 (P36952) (pool A-R after treatment): −7.9 | Ratio X/H Serpin B6 (P35237) (pool A-R after treatment): 0.0 | Ratio X/H Serpin B9 (P50453) (pool A-R after treatment): −4.1 | Ratio X/H Serpin B12 (Q96P63) (pool A-R after treatment): −2.7 | Ratio X/H Serpin B13 (Q9UIV8) (pool A-R after treatment): 0.0 | Ratio X/H Serum albumin (P02768) (pool A-R after treatment): −2.3 | Ratio X/H Serum paraoxonase/arylesterase 1 (P27169) (pool A-R after treatment): 0.0 | Ratio X/H Small proline-rich protein 3 (Q9UBC9) (pool A-R after treatment): 6.6 | Ratio X/H Stanniocalcin-1 (P52823) (pool A-R after treatment): 3.4 | Ratio X/H Sulfhydryl oxidase 1 (O00391) (pool A-R after treatment): 0.0 | Ratio X/H Superoxide dismutase [Cu—Zn] (P00441) (pool A-R after treatment): −1.8 | Ratio X/H Suprabasin (Q6UWP8) (pool A-R after treatment): 17.9 | Ratio X/H Syntenin-1 (O00560) (pool A-R after treatment): 1.9 | Ratio X/H Talin-1 (Q9Y490) (pool A-R after treatment): −1.6 | Ratio X/H Tctex1 domain-containing protein 2 (Q8WW35) (pool A-R after treatment): 1.8 | Ratio X/H Teneurin-3 (Q9P273) (pool A-R after treatment): 33.3 | Ratio X/H Thioredoxin (P10599) (pool A-R after treatment): 2.5 | Ratio X/H Transaldolase (P37837) (pool A-R after treatment): −1.9 | Ratio X/H Transmembrane protease serine 11D (O60235) (pool A-R after treatment): 0.0 | Ratio X/H Transthyretin (P02766) (pool A-R after treatment): 0.0 | Ratio X/H Tumor protein D54 (O43399) (pool A-R after treatment): 2.2 | Ratio X/H UTP--glucose-1-phosphate uridylyltransferase (Q16851) (pool A-R after treatment): 0.0 | Ratio X/H UV excision repair protein RAD23 homolog B (P54727) (pool A-R after treatment): −2.8 | Ratio X/H Uronyl 2-sulfotransferase (Q9Y2C2) (pool A-R after treatment): 2.0 | Ratio X/H Versican core protein (P13611) (pool A-R after treatment): 0.0 | Ratio X/H Vinculin (P18206) (pool A-R after treatment): 0.0 | Ratio X/H Vitamin D-binding protein (P02774) (pool A-R after treatment): −1.7 | Ratio X/H Werner syndrome ATP-dependent helicase (Q14191) (pool A-R after treatment): 331.1 | Ratio X/H Zinc finger protein 185 (O15231) (pool A-R after treatment): 5.2 | Ratio X/H Zinc finger protein 335 (Q9H4Z2) (pool A-R after treatment): 0.0 | Ratio X/H Zinc-alpha-2-glycoprotein (P25311) (pool A-R after treatment): 0.0

Reference: patent publication US20160047819A1, “METHOD FOR DIAGNOSING VAGINAL INFECTIONS” (priority 2013, published 2016)
